A short description of data set [1]: Water contact angle of polymer (spin-coated film, static contact angle). The class given is physicochemical. Particulars: homopolymer of the monomer; silicon wafer spin-coated with 1.0% chloroform solution; 2 µL water, 1 minute after the droplet reached the film. As for the experimental part:
For the water contact angle of the polymer, a silicon wafer substrate was spin-coated with a chloroform solution of the resulting polymer with a solid concentration of 1.0% and the static water contact angle was measured. The static contact angle was obtained by dropping 2 µL of water on a coating film and measuring the contact angle 1 minute after the droplet reached the film.

Data set [2] in a line: Solubility in water of polymer and of monomer. The format is physicochemical. As to conditions: thermodynamic from solid. The procedure:
For the solubility in water of the monomers, the respective monomers were added in small batches to a predetermined amount of water, and the solubility in water was determined from the amount of dissolution when no more monomer could be dissolved (floating, precipitation or deposition occurred, or the solution became clouded).

For the compound `C=C(C)C(=O)OCC(CC)CCCC` (stereo not shown) [EHMA, 2-ethyhexyl methacrylate], the “Water contact angle of homopolymer” value in data set [1] was 97 °.
`C=CC(=O)OCCCCCCCCCCCCCCCCCC` [SA, stearyl acrylate] returned a melting point of 50 °C. The “Water contact angle of homopolymer” value in data set [1] is given as 102 °. The same compound came in with a solubility in data set [2] of under 100 µg/mL.

The record behind these values is patent US20230122463A1, “ORGANIC FINE PARTICLE” (DAIKIN INDUSTRIES, LTD., priority 2020, published 2023).
